The numbers were not newly measured in US20060040940A1, “Imidazopyridines pyrimidines and triazines for enhancing cognition as gaba-a-alphas 5 receoptor subtype ligands” (priority 2001, published 2006), which cites them from elsewhere.

Series [1] relates to benzodiazepine receptor. Particulars: reported in Psychobiology, 21:101-108.
Series [2] concerns benzodiazepine receptor. Particulars: background statement.

Consider `COC(=O)c1cc2c(cn1)[nH]c1ccccc12` [β-CCM], for which, in the series with benzodiazepine receptor [1], the “spatial learning in the Morris watermaze” value is recorded as “enhanced spatial learning”. The proconvulsant effect entry in the series with benzodiazepine receptor [2] is given as “proconvulsant”.
